This passage reports half-life and Activity results from ChEMBL document CHEMBL1130587, “General synthesis of 3-substituted alkenyl GABA as potential anticonvulsants” (Bioorg Med Chem Lett, 1998).

Activity calls are given as the source filed them.

One data set is described as follows: Half life at a concentration 1 mM. The format is ADME.
`C=CC(CN)CC(=O)O` (configuration not stated) returned a half-life at 1000 µM of 39 min.
Still for that read-out and setting: under `C=CC(N)CCC(=O)O` (configuration not stated) [VIGABATRIN] stands 0.3 min.

A short description of another data set: Compound was evaluated for its ability to increase the […] glutamate decarboxylase at 2.5 mM dose. Details: scale not given: the % may be the effect or the level left.
On to `CC(C)CC(CN)CC(=O)O` (configuration not stated), for which the Activity came to 50%.

The next data set can be described thus: Compound was evaluated for the […] glutamate decarboxylase at 2.5 mM dose; No significant activation.
In the case of `CC(C)/C=C\C(CN)CC(=O)O` (configuration not stated), the result was inactive.
With `CC/C=C\C(CN)CC(=O)O` (configuration not stated), the outcome was inactive.
With `C/C=C\C(CN)CC(=O)O` (configuration not stated), the outcome was inactive.
Take `CC/C=C/C(CN)CC(=O)O` (configuration not stated): the result was inactive.
The same measure, in the same setting: under `C/C=C/C(CN)CC(=O)O` (configuration not stated) stands “inactive”.
The same measure, in the same setting: the entry for `C/C=C(\C)C(CN)CC(=O)O` (configuration not stated) is “inactive”; for `CC(C)=CC(CN)CC(=O)O` (configuration not stated) it is “inactive”; for `C=CC(CN)CC(=O)O` (configuration not stated) it is “inactive”.
On the same count and under the same terms, under `CCC/C=C\C(CN)CC(=O)O` (configuration not stated) stands “inactive”.

The term half-life denotes the time needed for the level to fall by half in the phase considered.
